This is an account of results in patent publication US20240218022A1, “ANTI-VISTA MACROCYCLIC PEPTIDES AND COMPOSITIONS” (BRISTOL-MYERS SQUIBB COMPANY, priority 2022, published 2024).

As a reminder, the IC50 is the concentration needed to halve the response being measured.

This assay addresses T1, mouse VISTA (mVISTA) (Mus musculus, UniProt Q9D659).
T1 construct: expressed in transfected cells; host or cells: Human embryonic kidney 293T cells
T1 sequence (Q9D659 33-308): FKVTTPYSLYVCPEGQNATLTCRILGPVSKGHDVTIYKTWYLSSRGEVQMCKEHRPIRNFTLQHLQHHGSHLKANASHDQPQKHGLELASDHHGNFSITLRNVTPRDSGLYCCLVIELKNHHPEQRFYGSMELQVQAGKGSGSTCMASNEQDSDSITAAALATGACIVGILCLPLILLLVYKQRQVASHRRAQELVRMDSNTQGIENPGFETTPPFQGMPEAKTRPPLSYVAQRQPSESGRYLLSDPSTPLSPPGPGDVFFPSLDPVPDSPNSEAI
Put plainly: Cell-Based Binding High-Content Assay For mVISTA (HC CBA mVISTA). The method in brief: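 Read-out: Alexa 647–streptavidin signal imaged on fixed, Hoechst-stained mVISTA-293T cells, with IC50 taken from a four-parameter logistic curve. Compounds competed with 2 nM biotinylated peptide for 30 min at room temperature, tested under both no-wash and wash (1 h compound, media exchange, 1 h) formats.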

Setting [1] is: cell-based binding high-content assay, mVISTA, the 16th table, read-out: HC CBA mVISTA IC50.

Where two headings read alike, the source gives them in different places. Starred links: 1 amine or outer side, 2 acyl side, 3 side chain; linkers in the order of their positions; H or OH if unused. Positions of bridges follow the written chain, without caps; N, C: chain ends. Non-standard residues stand in square brackets, D forms with d. Residues, ends and D or L forms follow the SMILES beside them. Phe(2,4-F2) = N[C@@H](Cc1ccc(F)cc1F)C(=O)O; Phe(3-Me) = Cc1cccc(C[C@H](N)C(=O)O)c1; γGlu = O=C(O)[C@H](CCC(=O)[*:2])N[*:1]; 2Nal = N[C@@H](Cc1ccc2ccccc2c1)C(=O)O; βAsp = O=C(O)[C@H](CC(=O)[*:2])N[*:1]; Ahp(2) = CCCCC[C@H](N)C(=O)O; NMeNle = CCCC[C@H](NC)C(=O)O; Tle = CC(C)(C)[C@H](N)C(=O)O; NHexGly = CCCCCCNCC(=O)O; NMeA = CN[C@@H](C)C(=O)O; Nle = CCCC[C@H](N)C(=O)O; Orn = NCCC[C@H](N)C(=O)O; Aun = NCCCCCCCCCCC(=O)O; AEEA = NCCOCCOCC(=O)O; NBuGly = CCCCNCC(=O)O

As to `CCCCCCN1CC(=O)N[C@@H](Cc2ccc(O)cc2)C(=O)N[C@@H](CCCC)C(=O)N[C@@H](CC(=O)O)C(=O)N[C@@H](CCCNC(=N)N)C(=O)N[C@@H](CC(C)C)C(=O)N[C@@H](CCCCC)C(=O)N2CCC[C@H]2C(=O)N[C@@H](C(C)C)C(=O)N[C@@H](CC(=O)O)C(=O)N[C@H](C(=O)NCC(=O)O)CSCC(=O)N[C@@H](Cc2ccccc2)C(=O)N[C@@H](Cc2ccc(O)cc2)C(=O)N[C@@H](CC(=O)O)C1=O` [Example 1010] ({CH2CO}-FYD[NHexGly]Y[Nle]DRL[Ahp(2)]PVDCG-OH; thioether N-14), the IC50 (293T cells expressing mouse VISTA, competition with biotinylated peptide (2 nM), read-out: HC CBA mVISTA IC50) came to 5.6 nM. Regarding `CCCCCCN1CC(=O)N[C@@H](Cc2ccc(O)cc2)C(=O)N[C@@H](CCCC)C(=O)N[C@@H](CC(N)=O)C(=O)N[C@@H](CCCN)C(=O)N(C)[C@@H](CCCC)C(=O)N[C@@H](CCCCC)C(=O)N2CCC[C@H]2C(=O)N[C@@H](C(C)(C)C)C(=O)N[C@@H](CC(=O)O)C(=O)N[C@H](C(=O)N[C@@H](CC(N)=O)C(=O)O)CSCC(=O)N[C@@H](Cc2ccccc2)C(=O)N[C@@H](Cc2c[nH]c3ccccc23)C(=O)N[C@@H](CC(=O)O)C1=O` [Example 1404] ({CH2CO}-FWD[NHexGly]Y[Nle]N[Orn][NMeNle][Ahp(2)]P[Tle]DCN-OH; thioether N-14), the IC50 (read-out: HC CBA mVISTA IC50) is 16 nM. Regarding `CCCCC[C@@H]1NC(=O)[C@H](CC(C)C)NC(=O)[C@H](CCCNC(=N)N)NC(=O)[C@H](CC(N)=O)NC(=O)[C@H](CCCC)NC(=O)[C@H](Cc2ccc(O)cc2)NC(=O)CN(CCCC)C(=O)[C@H](CC(=O)O)NC(=O)[C@H](Cc2ccc(O)cc2)NC(=O)[C@H](Cc2ccc3ccccc3c2)NC(=O)CSC[C@@H](C(=O)NCC(N)=O)NC(=O)[C@H](CC(=O)O)NC(=O)[C@H](C(C)C)NC(=O)[C@@H]2CCCN2C1=O` [Ex 1271] ({CH2CO}-[2Nal]YD[NBuGly]Y[Nle]NRL[Ahp(2)]PVDCG-NH2; thioether N-14), the IC50 under setting [1] was 8 nM. In the case of `CCCCCCN1CC(=O)N[C@@H](Cc2ccc(O)cc2)C(=O)N[C@@H](CCCCC)C(=O)NCC(=O)N[C@@H](CCCNC(=N)N)C(=O)N[C@@H](CC(C)C)C(=O)N[C@@H](CCCCC)C(=O)N2CCC[C@H]2C(=O)N[C@@H](C(C)C)C(=O)N[C@@H](CO)C(=O)N[C@H](C(=O)NCC(N)=O)CSCC(=O)N[C@@H](Cc2ccc3ccccc3c2)C(=O)N[C@@H](Cc2ccc(O)cc2)C(=O)N[C@@H](CC(=O)O)C1=O` [Ex 1273] ({CH2CO}-[2Nal]YD[NHexGly]Y[Ahp(2)]GRL[Ahp(2)]PVSCG-NH2; thioether N-14), the IC50 under setting [1] is 14.3 nM.

As to `CCCCCCN1CC(=O)N[C@@H](Cc2ccc(O)cc2)C(=O)N[C@@H](CC(C)C)C(=O)N[C@@H](CC(N)=O)C(=O)N[C@@H](CCCNC(=N)N)C(=O)N(C)[C@@H](CCCC)C(=O)N[C@@H](CCCCC)C(=O)N2CCC[C@H]2C(=O)N[C@@H](C(C)(C)C)C(=O)N[C@@H](CO)C(=O)N[C@H](C(=O)N[C@@H](CCC(=O)NCCCCCCCCCCC(=O)O)C(=O)O)CSCC(=O)N[C@@H](Cc2ccccc2)C(=O)N[C@@H](Cc2ccc(O)cc2)C(=O)N[C@@H](CC(=O)O)C1=O` [Example 2136] ({CH2CO}-FYD[NHexGly]YLNR[NMeNle][Ahp(2)]P[Tle]SC[γGlu][Aun]-OH; thioether N-14), the IC50 (read-out: HC CBA mVISTA IC50) amounted to 19.8 nM. With `CCCCCCN1CC(=O)N[C@@H](Cc2ccc(O)cc2)C(=O)N[C@@H](CCCC)C(=O)N[C@@H](CC(N)=O)C(=O)N[C@@H](CCCNC(=N)N)C(=O)N(C)[C@@H](CCCC)C(=O)N[C@@H](CCCCC)C(=O)N2CCC[C@H]2C(=O)N[C@@H](C(C)C)C(=O)N[C@@H](CC(=O)O)C(=O)N[C@H](C(=O)NCC(=O)O)CSCC(=O)N[C@@H](Cc2cccc(C)c2)C(=O)N[C@@H](Cc2ccc(O)cc2)C(=O)N[C@@H](CC(=O)O)C1=O` [compound 1211] ({CH2CO}-[Phe(3-Me)]YD[NHexGly]Y[Nle]NR[NMeNle][Ahp(2)]PVDCG-OH; thioether N-14), the IC50 (read-out: HC CBA mVISTA IC50) was 22.1 nM.

On to `CCCCCCN1CC(=O)N[C@@H](Cc2ccc(O)cc2)C(=O)N[C@@H](CCCC)C(=O)N[C@@H](CC(N)=O)C(=O)N[C@@H](CCCNC(=N)N)C(=O)N(C)[C@@H](CCCC)C(=O)N[C@@H](CCCCC)C(=O)N2CCC[C@H]2C(=O)N[C@@H](C(C)C)C(=O)N[C@@H](C(C)C)C(=O)N[C@H](C(=O)NCC(=O)O)CSCC(=O)N[C@@H](Cc2ccccc2)C(=O)N[C@@H](Cc2c[nH]c3ccccc23)C(=O)N[C@@H](CC(=O)O)C1=O` [Example 1383] ({CH2CO}-FWD[NHexGly]Y[Nle]NR[NMeNle][Ahp(2)]PVVCG-OH; thioether N-14), for which the IC50 (read-out: HC CBA mVISTA IC50) stood at 16.9 nM.

Turning to `CCCCCCN1CC(=O)N[C@@H](Cc2ccc(O)cc2)C(=O)N[C@@H](C(C)C)C(=O)NCC(=O)N[C@@H](CCCNC(=N)N)C(=O)N[C@@H](CC(C)C)C(=O)N[C@@H](CCCCC)C(=O)N2CCC[C@H]2C(=O)N[C@@H](C(C)C)C(=O)N[C@@H](CC(=O)O)C(=O)N[C@H](C(=O)NCCOCCOCC(=O)N[C@@H](CCC(=O)NCCOCCOCC(=O)NCCCCCCCCCCC(=O)O)C(=O)O)CSCC(=O)N[C@@H](Cc2ccc3ccccc3c2)C(=O)N[C@@H](Cc2ccc(O)cc2)C(=O)N[C@@H](CC(=O)O)C1=O` [compound 2219] ({CH2CO}-[2Nal]YD[NHexGly]YVGRL[Ahp(2)]PVDC[AEEA][γGlu][AEEA][Aun]-OH; thioether N-14), the IC50 (read-out: HC CBA mVISTA IC50) is 24 nM.

Take `CCCCCCN1CC(=O)N[C@@H](Cc2ccc(O)cc2)C(=O)N[C@@H](C)C(=O)N[C@@H](CC(N)=O)C(=O)N[C@@H](CCCNC(=N)N)C(=O)N(C)[C@@H](CCCC)C(=O)N[C@@H](CCCCC)C(=O)N2CCC[C@H]2C(=O)N[C@@H](C(C)(C)C)C(=O)N[C@@H](CO)C(=O)N[C@H](C(=O)N[C@@H](CC(=O)NCCOCCOCC(=O)N[C@@H](CC(=O)O)C(=O)NCCOCCOCC(=O)NCCCCCCCCCCC(=O)O)C(=O)O)CSCC(=O)N[C@@H](Cc2ccccc2)C(=O)N[C@@H](Cc2c[nH]c3ccccc23)C(=O)N[C@@H](CC(=O)O)C1=O` [compound 2098] ({CH2CO}-FWD[NHexGly]YANR[NMeNle][Ahp(2)]P[Tle]SC[βAsp][AEEA]D[AEEA][Aun]-OH; thioether N-14): the IC50 (cell-based binding high-content assay, mVISTA, read-out: HC CBA miPrISTA IC50) came to 36.6 nM. On to `CCCCCCN1CC(=O)N[C@@H](Cc2ccc(O)cc2)C(=O)N[C@@H](CCCC)C(=O)N[C@@H](CC(N)=O)C(=O)N[C@@H](CCCNC(=N)N)C(=O)N(C)[C@@H](CCCC)C(=O)N[C@@H](CCCCC)C(=O)N2CCC[C@H]2C(=O)N[C@@H](C(C)C)C(=O)N[C@@H](CC(=O)O)C(=O)N[C@H](C(=O)NCCOCCOCC(=O)N[C@@H](CC(=O)O)C(=O)NCCOCCOCC(=O)NCCCCCCCCCCC(=O)O)CSCC(=O)N[C@@H](Cc2ccccc2)C(=O)N[C@@H](Cc2c[nH]c3ccccc23)C(=O)N[C@@H](CC(=O)O)C1=O` [compound 2293] ({CH2CO}-FWD[NHexGly]Y[Nle]NR[NMeNle][Ahp(2)]PVDC[AEEA]D[AEEA][Aun]-OH; thioether N-14), for which the IC50 (cell-based binding high-content assay, read-out: HC CBA miPrISTA IC50) is 25.7 nM. For the compound `CCCCCCN1CC(=O)N[C@@H](Cc2ccc(O)cc2)C(=O)N[C@@H](CCCC)C(=O)N[C@@H](CC(N)=O)C(=O)N[C@@H](CCCNC(=N)N)C(=O)N(C)[C@@H](CCCC)C(=O)N[C@@H](CCCCC)C(=O)N(C)[C@@H](C)C(=O)N[C@@H](C(C)(C)C)C(=O)N[C@@H](CO)C(=O)N[C@H](C(=O)N[C@@H](CC(=O)NCCOCCOCC(=O)NCCCCCCCCCCC(=O)O)C(=O)O)CSCC(=O)N[C@@H](Cc2ccccc2)C(=O)N[C@@H](Cc2c[nH]c3ccccc23)C(=O)N[C@@H](CC(=O)O)C1=O` [Example 2169] ({CH2CO}-FWD[NHexGly]Y[Nle]NR[NMeNle][Ahp(2)][NMeA][Tle]SC[βAsp][AEEA][Aun]-OH; thioether N-14), the IC50 (read-out: HC CBA mVISTA IC50) was determined as 19.8 nM. Turning to `CCCCCCN1CC(=O)N[C@@H](Cc2ccc(O)cc2)C(=O)N[C@@H](CCCCC)C(=O)N[C@@H](CC(N)=O)C(=O)N[C@@H](CCCNC(=N)N)C(=O)N(C)[C@@H](CCCC)C(=O)N[C@@H](CCCCC)C(=O)N2CCC[C@H]2C(=O)N[C@@H](C(C)C)C(=O)N[C@@H](CC(=O)O)C(=O)N[C@H](C(=O)NCC(=O)O)CSCC(=O)N[C@@H](Cc2ccc(F)cc2F)C(=O)N[C@@H](Cc2ccc(F)cc2F)C(=O)N[C@@H](CC(=O)O)C1=O` [compound 1216] ({CH2CO}-[Phe(2,4-F2)][Phe(2,4-F2)]D[NHexGly]Y[Ahp(2)]NR[NMeNle][Ahp(2)]PVDCG-OH; thioether N-14), where the note is “read-out: HC CBA mVISTA IC50”, the half-inhibitory concentration (IC50) is 12.9 nM.

`CCCCCCN1CC(=O)N[C@@H](Cc2ccc(O)cc2)C(=O)N[C@@H](CC(C)C)C(=O)N[C@@H](CC(N)=O)C(=O)N[C@@H](CCCNC(=N)N)C(=O)N(C)[C@@H](CCCC)C(=O)N[C@@H](CCCCC)C(=O)N2CCC[C@H]2C(=O)N[C@@H](C(C)(C)C)C(=O)N[C@@H](C(C)C)C(=O)N[C@H](C(=O)NCCOCCOCC(=O)N[C@@H](CCC(=O)NCCOCCOCC(=O)NCCCCCCCCCCC(=O)O)C(=O)O)CSCC(=O)N[C@@H](Cc2ccccc2)C(=O)N[C@@H](Cc2c[nH]c3ccccc23)C(=O)N[C@@H](CC(=O)O)C1=O` [compound 2281] ({CH2CO}-FWD[NHexGly]YLNR[NMeNle][Ahp(2)]P[Tle]VC[AEEA][γGlu][AEEA][Aun]-OH; thioether N-14): the IC50 (read-out: HC CBA mVISTA IC50) was determined as 31.3 nM.
